These results are taken from patent US6482841B1, “Pyridyl compounds and pharmaceutical compositions containing them” (Cermol S.A., priority 1997, dated 2002).

Data set [1] concerns isolated guinea-pig ventricular myocytes. As to the kind of experiment: Protection of isolated ventricular myocytes from hypercontracture obtained by incubation with veratridine. Type of data set: cell-based. Conditions: 1 μM, with reference to vehicle-treated cells. The procedure:
(§1) Isolated guinea-pig ventricular myocytes were obtained following the method described by Powell et al. (J. Physiol., 1980, 102: 131) as modified by Levi et al. (J. Physiol., 1990, 425:9P). Cell hypercontracture and death was obtained either by incubation under N2 atmosphere or by incubation with veratridine which induced important changes in the ionic homeostase of cardiomyocytes (Hiroko Hashizume et al., European Journal of Pharmacology, […], 271: 1-8). Results expressed as percentage of cells protected from hypercontracture i.e. maintaining its rod-shaped morphology with reference to vehicle-treated cells are given in the tables I and II hereafter.

The test system of data set [2] is guinea-pig ventricular cardiomyocytes action potential. As to the kind of experiment: Action potential of ventricular cardiomyocytes in the presence of veratridine (patch clamp). Format: cell-based. On the procedure:
(§2) In order to confirm the cardioprotection, the activity of one of the most interesting compound (example 31 according to the invention) was tested on guinea-pig ventricular cardiomyocytes action potential (AP) in the presence of veratridine or in anoxic condition. The action potential (AP) time courses of guinea-pig ventricular cardiomyocytes treated with veratridine or made anoxic by incubation under N2 atmosphere were measured (patch clamp technique) in absence and presence of the compound of example 31 according to the invention. […] In anoxic conditions, there is a shortening of cardiomyocyte action potential duration related mainly with an activation of K+-ATP dependent current.
On the technique in general: Patch clamp records ionic current or voltage across a cell membrane.

The test system of data set [3] is isolated guinea-pig ventricular myocytes. In words: Protection of isolated ventricular myocytes from hypercontracture obtained by incubation under N2 atmosphere. Type of data set: cell-based. The settings on record: 30 nM, with reference to vehicle-treated cells. The procedure:
as §1

Data set [4] has as its system guinea-pig ventricular cardiomyocytes action potential. In words: Action potential of ventricular cardiomyocytes in anoxic condition under N2 atmosphere (patch clamp). Type of data set: cell-based. The settings on record: 100-300 nM. The procedure: as §2
In the next data set the test system is anaesthetised rats. In words: In vivo cardioprotective effect: coronary occlusion and reperfusion in anaesthetised rats. Set-up: species or system rat. Conditions: 2 × 20 mg/kg orally (one day and one hour before the experiment). The source says: Cardiac death and arrhythmias were induced by the coronary occlusion and reperfusion method in anaesthetised rats according to the method of Seyle et al. (Angiology, 1960, 11, 398-407) modified by Krzeminski T. (“proceedings of 7th Freiburg Focus of Biomeasurement”, Strasbourg, 16-19 September 1991) Cardiovascular and Respiratory in vivo Studies, Biomesstechnik, Verlag March GmbH, Germany) and according to the LAMBETH conventions (Walker M. J. A. et al., Cardiovasc Re., […], 22, 447-455). The products have been administered orally (one day and one hour before the experiment). They are given in percentage of protection against the mortality and the arrhythmias (ventricular fibrillations).

What is called melting point is the temperature of the solid-liquid transition. `COC(=O)c1c(C)nc(C)c(C(=O)OCC2CCC(=O)O2)c1-c1ccccc1[N+](=O)[O-]` (centres unmarked) [Example 15, 2,6-Dimethyl-4-(2-nitrophenyl) pyridine-3,5-dicarboxylic acid 3-methyl ester 5-(5-oxotetrahydrofuran-2-ylmethyl)ester]: the melting point was 132 to 134 °C.

Consider `COC(=O)c1c(C)nc(C)c(C(=O)OCC2CCCO2)c1-c1cccc(O)c1.Cl` (centres unmarked), for which the melting point was in the range of 95 to 97 °C.

`COC(=O)c1c(C)nc(C)c(C(=O)OCC2CCCO2)c1-c1cccc(NC(C)=O)c1.Cl` (centres unmarked): the melting point lay in the range of 196 to 198 °C.

For the compound `COC(=O)c1c(C)nc(C)c(C(=O)O)c1-c1ccccc1[N+](=O)[O-]` [Example 31, 2,6-Dimethyl-4-(2-nitrophenyl) pyridine-3,5-dicarboxylic acid 3-methyl ester], the “% Protection (cells protected from hypercontracture)” value stood at 64% in data set [1] and 58% in data set [3]. Also, the “Prolongation of cardiomyocyte action potential duration induced by veratridine” value in data set [2] (100-300 nM, veratridine) was “prevents”. Further, the “Influence on the normal action potential” value in data set [2] (normal action potential) is recorded as “does not influence significantly”. In addition, the “Shortening of cardiomyocyte action potential duration in anoxic conditions (K+-ATP dependent current)” value in data set [4] was “inhibited dose-dependently and strongly”. In addition, the “% PROTECTION AGAINST DEATH” value with anaesthetised rats is on record as 85.7%. The “% PROTECTION AGAINST VENTRICULAR FIBRILLATIONS” value in the data set with anaesthetised rats amounted to 73.4%.

As to `CCOC(=O)c1c(C)nc(C)c(C(=O)OC)c1-c1cccc([N+](=O)[O-])c1` [Example 24, 2,6-Dimethyl-4-(3-nitrophenyl)pyridine-3,5-dicarboxylic acid 3-ethyl 5-methyl ester], in data set [1], the “% Protection (cells protected from hypercontracture)” value is 37.5%. Also, in data set [3], the “% Protection (cells protected from hypercontracture)” value is recorded as 60%. Besides, in the data set with anaesthetised rats, the “% PROTECTION AGAINST DEATH” value stood at 100% and the “% PROTECTION AGAINST VENTRICULAR FIBRILLATIONS” value is on record as 37.5%.

As to `COC(=O)c1c(C)nc(C)c(C(=O)OCC2CCCO2)c1-c1ccccc1[N+](=O)[O-]` (centres unmarked) [Example 12, 2,6-Dimethyl-4-(2-nitrophenyl) pyridine-3,5-dicarboxylic acid 3-methyl ester 5-(tetrahydrofuran-2-ylmethyl) ester], in data set [1], the “% Protection (cells protected from hypercontracture)” value turned out to be 57%. Further, in data set [3], the “% Protection (cells protected from hypercontracture)” value is listed as 80%. Also, in the data set on anaesthetised rats, the “% PROTECTION AGAINST DEATH” value is given as 100% and the “% PROTECTION AGAINST VENTRICULAR FIBRILLATIONS” value is 100%.

In the case of `COCCOC(=O)c1c(C)nc(C)c(C(=O)OC(C)C)c1-c1cccc([N+](=O)[O-])c1` [Example 22, 2,6-Dimethyl-4-(3-nitrophenyl)-pyridine-3,5-dicarboxylic acid 3-isopropyl ester 5-(2-methoxyethyl) ester], the “% Protection (cells protected from hypercontracture)” value was determined as 37.5% in data set [1] and 63% in data set [3]. Further, the “% PROTECTION AGAINST DEATH” value in the data set on anaesthetised rats amounted to 100%. In addition, the “% PROTECTION AGAINST VENTRICULAR FIBRILLATIONS” value in the data set with anaesthetised rats came out at 50%.

`COC(=O)c1c(C)nc(C)c(C(=O)OCC2CCCO2)c1-c1cccc(F)c1` (centres unmarked) [Example 3, 2,6-Dimethyl-4-(3-fluorophenyl) pyridine-3,5-dicarboxylic acid 3-methyl ester 5-(tetrahydrofuran-2-ylmethyl) ester] showed a melting point of 66 to 68 °C.

`COC(=O)c1c(C)nc(C)c(C(=O)OC)c1-c1ccccc1[N+](=O)[O-]` [Example 25, 2,6-Dimethyl-4-(2-nitrophenyl) pyridine-3,5-dicarboxylic acid dimethyl ester]: the “% Protection (cells protected from hypercontracture)” value in data set [1] is 34%; in data set [3], 50%. For the same compound, the “% PROTECTION AGAINST DEATH” value in the data set on anaesthetised rats is on record as 100%. The “% PROTECTION AGAINST VENTRICULAR FIBRILLATIONS” value in the data set with anaesthetised rats was found to be 50%.

As for `COC(=O)c1c(C)nc(C)c(C(=O)OCC(C)C)c1-c1ccccc1[N+](=O)[O-]` [Example 23, 2,6-Dimethyl-4-(2-nitrophenyl)-pyridine-3,5-dicarboxylic acid 3-methyl ester 5-isobutyl ester], in data set [1], the “% Protection (cells protected from hypercontracture)” value amounted to 41.3%. The “% Protection (cells protected from hypercontracture)” value in data set [3] came to 50%. In the data set on anaesthetised rats, the “% PROTECTION AGAINST DEATH” value is 100% and the “% PROTECTION AGAINST VENTRICULAR FIBRILLATIONS” value is recorded as 75%.

As for `Cc1nc(C)c(C(=O)OCC2CCCO2)c(-c2cccc([N+](=O)[O-])c2)c1C(=O)OCC1CCCO1.Cl` (centres unmarked), the melting point fell in the range of 75 to 77 °C.
